# Paper PMC9939733 (The Journal of Biological Chemistry, 2023)
# Where a chain is given by its changes, count along the chain named. Counter-ions that a name gives are not always drawn.
# Tests used:
# Format in all cases: biochemical
# WT IDH1 [1] = biological target: T1, WT IDH1 (Homo sapiens, UniProt O75874); test: Absorbance assay, WT activity in the presence of equimolar DL-isocitrate (inhibition); conditions: […] isocitrate and […] test compound, 75 μM NADP+, 2.0 nM WT IDH1
# T1 construct: made in house; host or cells: Escherichia coli BL21(DE3) pLyS
# In short: (§1)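 Values come from four technical replicates per reaction; compound transfer used a simultaneous pipettor and reagent dispensing triggered the start.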
# WT IDH2 [2] = biological target: T2, WT IDH2 (Homo sapiens, UniProt P48735); test: as above; conditions: […] isocitrate and […] test compound, 75 μM NADP+, 2.0 nM WT IDH2
# T2 construct: made in house; host or cells: Sf21 insect cells (cell pellets prepared at Evotec)
# T2 sequence (P48735 40-452): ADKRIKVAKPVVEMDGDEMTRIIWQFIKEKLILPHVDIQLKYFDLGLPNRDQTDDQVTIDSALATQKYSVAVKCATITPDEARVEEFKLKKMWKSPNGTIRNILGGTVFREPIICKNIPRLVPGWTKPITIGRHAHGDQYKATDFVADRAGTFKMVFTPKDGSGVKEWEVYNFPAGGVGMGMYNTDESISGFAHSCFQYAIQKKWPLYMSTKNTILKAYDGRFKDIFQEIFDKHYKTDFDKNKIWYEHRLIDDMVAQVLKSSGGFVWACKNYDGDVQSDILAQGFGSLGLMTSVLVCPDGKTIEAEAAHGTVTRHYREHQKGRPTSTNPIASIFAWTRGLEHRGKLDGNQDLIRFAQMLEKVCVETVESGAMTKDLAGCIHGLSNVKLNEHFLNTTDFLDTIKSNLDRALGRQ
# In short: as §1
# R172K IDH2 [3] = biological target: T3, R172K IDH2 (Homo sapiens, UniProt P48735, R172K); test: Absorbance assay (NADPH consumption), substrate turnover in the absence of 2OG; conditions: no 2OG; 1.0 mM test compound, 0.03 μM R172K IDH2, 50 μM NADPH; 2OG = 100
# T3 construct: made in house; host or cells: Sf21 insect cells (cell pellets prepared at Evotec)
# T3 sequence (P48735 40-452 R172K): T2 sequence (P48735 40-452) with R133K
# In short: as §1
# R140Q IDH2 [4] = biological target: T4, R140Q IDH2 (Homo sapiens, UniProt P48735, R140Q); test: as above; conditions: no 2OG; 6.0 mM test compound, 0.03 μM R140Q IDH2, 50 μM NADPH; 2OG = 100
# T4 construct: made in house; host or cells: Sf21 insect cells (cell pellets prepared at Evotec)
# T4 sequence (P48735 40-452 R140Q): T2 sequence (P48735 40-452) with R101Q
# In short: as §1
# R132H IDH1 [5] = biological target: T5, R132H IDH1 (Homo sapiens, UniProt O75874, R132H); test: as above; parameters: made in house; host or cells: Escherichia coli BL21(DE3) pLyS; conditions: no 2OG; […] test compound, 0.03 μM R132H IDH1, 50 μM NADPH; 2OG = 100
# In short: as §1
# R132H IDH1 [6] = biological target: T5, R132H IDH1; test: Absorbance assay, variant activity in the presence of equimolar 2OG (inhibition screen); parameters: made in house; host or cells: Escherichia coli BL21(DE3) pLyS; conditions: […] 2OG and […] test compound, 0.03 μM R132H IDH1, 50 μM NADPH
# In short: as §1
# WT IDH1 [7] = biological target: T1, WT IDH1; test: Absorbance assay, substrate activity in the absence of DL-isocitrate; conditions: no DL-isocitrate; […] test compound, 75 μM NADP+, 2.0 nM WT IDH1; compared to DL-isocitrate
# In short: as §1
# WT IDH2 [8] = biological target: T2, WT IDH2; test: as above; conditions: no DL-isocitrate; […] test compound, 75 μM NADP+, 2.0 nM WT IDH2; compared to DL-isocitrate
# In short: as §1
# R172K IDH2 [9] = biological target: T3, R172K IDH2; test: Absorbance assay, variant activity in the presence of equimolar 2OG (inhibition screen); conditions: 1.0 mM 2OG and 1.0 mM test compound, 0.03 μM R172K IDH2, 50 μM NADPH
# In short: as §1
# R140Q IDH2 [10] = biological target: T4, R140Q IDH2; test: as above; conditions: 6.0 mM 2OG and 6.0 mM test compound, 0.03 μM R140Q IDH2, 50 μM NADPH
# In short: as §1
# T5 sequence (O75874 whole entry R132H): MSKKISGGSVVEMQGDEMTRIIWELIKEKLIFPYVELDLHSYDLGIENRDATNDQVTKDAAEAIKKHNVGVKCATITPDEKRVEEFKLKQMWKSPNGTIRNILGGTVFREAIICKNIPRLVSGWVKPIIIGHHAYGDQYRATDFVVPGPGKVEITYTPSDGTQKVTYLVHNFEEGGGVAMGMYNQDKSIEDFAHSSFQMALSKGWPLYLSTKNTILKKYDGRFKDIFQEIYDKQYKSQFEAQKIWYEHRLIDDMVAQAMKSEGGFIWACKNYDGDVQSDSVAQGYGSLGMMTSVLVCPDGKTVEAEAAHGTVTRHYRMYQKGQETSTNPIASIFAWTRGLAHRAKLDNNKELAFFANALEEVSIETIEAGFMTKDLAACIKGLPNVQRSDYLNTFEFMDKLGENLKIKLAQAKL
# T1 sequence (O75874 whole entry): as the sequence (O75874 whole entry R132H) above, with H132R counted along it
Molecule,activity [%] (%-substrate conversion after 20 min incubation) (WT IDH1 [1]),activity [%] (%-substrate conversion after 20 min incubation) (WT IDH2 [2]),activity [%] (%-substrate conversion after 20 min incubation) (R172K IDH2 [3]),activity [%] (%-substrate conversion after 20 min incubation) (R140Q IDH2 [4]),activity [%] (%-substrate conversion after 20 min incubation) (R132H IDH1 [5]),activity [%] (%-substrate conversion after 20 min incubation) (R132H IDH1 [6]),activity [%] (%-substrate conversion after 20 min incubation) (WT IDH1 [7]),activity [%] (%-substrate conversion after 20 min incubation) (WT IDH2 [8]),activity [%] (%-substrate conversion after 20 min incubation) (R172K IDH2 [9]),activity [%] (%-substrate conversion after 20 min incubation) (R140Q IDH2 [10])
CC(=O)C(=O)O [pyruvic acid],111 ± 6%,97 ± 5%,< 10%,< 10%,< 10%,112 ± 8%,< 10%,< 10%,114 ± 12%,108 ± 4%
CCOC(=O)/C=C/C(=O)O [mono-ethyl fumarate],106 ± 4%,96 ± 5%,< 10%,< 10%,< 10%,94 ± 8%,< 10%,< 10%,107 ± 3%,108 ± 7%
succinyl CoA,100 ± 1%,99 ± 1%,< 10%,< 10%,< 10%,73 ± 1%,< 10%,< 10%,91 ± 6%,117 ± 2%
O=C(O)CC(Cc1ccccc1)C(=O)O (racemic) [DL-benzylsuccinic acid],103 ± 4%,101 ± 3%,< 10%,< 10%,< 10%,93 ± 3%,< 10%,< 10%,98 ± 3%,123 ± 5%
CC(CC(=O)O)C(=O)O (racemic) [DL-2-methylsuccinic acid],103 ± 2%,99 ± 3%,< 10%,< 10%,< 10%,104 ± 3%,< 10%,< 10%,102 ± 9%,115 ± 12%
C=C(CC(=O)O)C(=O)O [itaconic acid],99 ± 1%,99 ± 2%,< 10%,< 10%,< 10%,92 ± 2%,< 10%,< 10%,95 ± 7%,96 ± 3%
O=C(O)[C@@H]1CCCN1 [L-proline],102 ± 1%,98 ± 1%,< 10%,< 10%,< 10%,98 ± 1%,< 10%,< 10%,98 ± 4%,106 ± 2%
O=C(O)CC(=O)C(=O)O [oxaloacetic acid],100 ± 1%,98 ± 2%,< 10%,< 10%,< 10%,106 ± 2%,< 10%,< 10%,96 ± 8%,110 ± 3%
